Molecules are shown by their SMILES.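 Test compounds were applied to cells in 96-well plates for 48 hours at 5 doses. GI50 is the concentration that inhibits growth by half. TGI is the concentration that stops growth completely.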

Some test systems named below: DU-145 prostate; SF-268 CNS; OVCAR-5 ovarian; T-47D breast; LOX IMVI melanoma; COLO 205 colon; NCI-H23 lung; UO-31 renal; HL-60(TB) leukemia; SR leukemia.
Holding throughout (experiment): growth of human tumour cells (NCI), 48 h

Take `CC1SC(c2cccs2)N(NC(=O)C(O)c2ccccc2)C1=O` (centres undefined): the GI50 in the test on DU-145 prostate, in the test on SF-268 CNS, with OVCAR-5 ovarian, in the test with T-47D breast, in the test with LOX IMVI melanoma and with COLO 205 colon was above 100 µM throughout. In addition, the GI50 in the test on NCI-H23 lung and in the test on UO-31 renal was above 100 µM in each case. Further, the TGI in the test on DU-145 prostate, with SF-268 CNS, in the test on OVCAR-5 ovarian, in the test with T-47D breast, in the test with LOX IMVI melanoma and with COLO 205 colon was above 100 µM in each case. Besides, the TGI in the test with NCI-H23 lung and with UO-31 renal was above 100 µM throughout.
For `O=C(NC(=S)NS(=O)(=O)c1ccc(N2N=C3c4ccccc4CC3C2c2cccs2)cc1)c1ccccc1` (centres undefined), the GI50 is 28.3 µM in the test with DU-145 prostate; above 100 µM with SF-268 CNS; 18.7 µM in the test with OVCAR-5 ovarian; 69.6 µM with T-47D breast; 15.2 µM with LOX IMVI melanoma; 38.4 µM with COLO 205 colon. In addition, the GI50 in the test on UO-31 renal was 41.1 µM. In addition, the TGI in the test on DU-145 prostate was above 100 µM; with SF-268 CNS it was above 100 µM; in the test with OVCAR-5 ovarian it was 71.7 µM; in the test with T-47D breast it was above 100 µM; in the test with LOX IMVI melanoma, 31.7 µM; with COLO 205 colon, above 100 µM. Besides, the TGI in the test on UO-31 renal is above 100 µM.
In the case of `CN(C)/[N+]([O-])=N/Oc1cc(Nc2ccc(C(=O)O)cc2)c([N+](=O)[O-])cc1[N+](=O)[O-]`, the GI50 in the test with DU-145 prostate is 18 µM; in the test with SF-268 CNS, 20.4 µM; with HL-60(TB) leukemia, 18.5 µM; with OVCAR-5 ovarian, 38.5 µM; in the test with LOX IMVI melanoma, 19 µM; in the test with COLO 205 colon, 28.2 µM. Moreover, the GI50 is 20.3 µM with NCI-H23 lung, 25.6 µM with UO-31 renal and 51.3 µM with SR leukemia. The TGI in the test with DU-145 prostate was 35.7 µM; in the test on SF-268 CNS, 40.1 µM; in the test with HL-60(TB) leukemia, 58.8 µM; in the test with OVCAR-5 ovarian it was above 100 µM; with LOX IMVI melanoma, 33.6 µM; in the test with COLO 205 colon it was 63.5 µM. For the same compound, the TGI with NCI-H23 lung is 40.9 µM; in the test on UO-31 renal, 67.3 µM; in the test with SR leukemia, above 100 µM.
With `N#Cc1c2ccccc2c2nnc3cc(Cl)c(Cl)cc3n12`, the GI50 with DU-145 prostate is 32.4 µM; in the test on SF-268 CNS it was 27.7 µM; in the test with HL-60(TB) leukemia, 22.6 µM; in the test with OVCAR-5 ovarian, above 100 µM; in the test with T-47D breast, above 100 µM; with LOX IMVI melanoma it was 59.3 µM. Also, the figures for the GI50 in the test on NCI-H23 lung and with UO-31 renal were 75.1 µM and 23.3 µM, respectively. Moreover, the TGI with DU-145 prostate was above 100 µM; in the test with SF-268 CNS, 83.3 µM; in the test with HL-60(TB) leukemia, 70.2 µM; with OVCAR-5 ovarian, above 100 µM; with T-47D breast it was above 100 µM; in the test on LOX IMVI melanoma, above 100 µM. Besides, the results for the TGI in the test with NCI-H23 lung and in the test with UO-31 renal were above 100 µM and 65.8 µM, respectively.
For `CNCCNc1nc2ccccc2c2c(=O)c3cccc(OC)c3sc12`, the GI50 was 1.49 µM with DU-145 prostate; 1.56 µM in the test with SF-268 CNS; 1.8 µM in the test with HL-60(TB) leukemia; 1.64 µM in the test with OVCAR-5 ovarian; 1.57 µM with T-47D breast; 1.27 µM in the test on LOX IMVI melanoma. Besides, the GI50 in the test on COLO 205 colon is 1.11 µM; in the test on NCI-H23 lung, 1.48 µM; with UO-31 renal, 0.38 µM. Also, the TGI amounted to 2.95 µM with DU-145 prostate; 3.33 µM in the test on SF-268 CNS; 3.64 µM with HL-60(TB) leukemia; 3.27 µM with OVCAR-5 ovarian; 3.56 µM with T-47D breast; 2.63 µM in the test with LOX IMVI melanoma. In addition, the results for the TGI in the test with COLO 205 colon, in the test with NCI-H23 lung and in the test on UO-31 renal were 2.68 µM, 3 µM and 2.08 µM, respectively.
`O=C1/C(=C/c2ccc(O)cc2)CCC1CNc1ccc(Cl)cc1` (centres undefined): the TGI in the test with DU-145 prostate is 26.2 µM; in the test with SF-268 CNS, 19.8 µM; with OVCAR-5 ovarian, 23.5 µM; with LOX IMVI melanoma, 7.24 µM; in the test with COLO 205 colon, 3.24 µM; with NCI-H23 lung, 24.3 µM. The TGI was found to be 9.82 µM in the test with UO-31 renal and 5.51 µM with SR leukemia.
With `O=[N+]([O-])c1ccc2[nH]cc(-c3c4ccccc4cc4[nH]c5ccc([N+](=O)[O-])cc5c34)c2c1`, the GI50 with DU-145 prostate is 2.26 µM; in the test with SF-268 CNS, 2.66 µM; with OVCAR-5 ovarian it was 2.21 µM; in the test with T-47D breast it was 1.71 µM; in the test on LOX IMVI melanoma, 1.92 µM; with COLO 205 colon, 2.46 µM. Besides, the GI50 was 2.59 µM in the test on NCI-H23 lung, 1.76 µM with UO-31 renal and 2.86 µM with SR leukemia. Besides, the TGI in the test with DU-145 prostate was found to be 5.09 µM; in the test on SF-268 CNS it was 9.57 µM; in the test on OVCAR-5 ovarian it was 5.94 µM; in the test with T-47D breast, 4.74 µM; with LOX IMVI melanoma, 4.14 µM; in the test with COLO 205 colon, 7 µM. Also, the TGI in the test on NCI-H23 lung was 8.11 µM; with UO-31 renal it was 5.1 µM; in the test with SR leukemia it was above 100 µM.
`O=c1c2ccccc2nc(-c2ccc(Cl)cc2)n1O`: the TGI with DU-145 prostate is above 100 µM; in the test on SF-268 CNS, above 100 µM; with HL-60(TB) leukemia, 65 µM; in the test with OVCAR-5 ovarian, above 100 µM; with T-47D breast, above 100 µM; in the test with COLO 205 colon, above 100 µM. Further, the TGI is above 100 µM in the test on NCI-H23 lung and 5.79 µM with UO-31 renal.
For `COc1cc(/C=C/C(=O)c2ccc(Nc3nc(Nc4ccc(F)cc4)nc(Nc4ccc(F)cc4)n3)cc2)cc(OC)c1OC`, the GI50 is above 100 µM in the test with DU-145 prostate; 41.2 µM in the test on SF-268 CNS; 1 µM with HL-60(TB) leukemia; 20.5 µM with OVCAR-5 ovarian; 5.76 µM with T-47D breast; 6.73 µM in the test on LOX IMVI melanoma. Moreover, the GI50 is 3.5 µM in the test on COLO 205 colon, 4.86 µM in the test with NCI-H23 lung and 3.75 µM with UO-31 renal. The TGI with DU-145 prostate, in the test with SF-268 CNS, in the test on HL-60(TB) leukemia, with OVCAR-5 ovarian, with T-47D breast and with LOX IMVI melanoma was above 100 µM each time. The TGI with COLO 205 colon, in the test with NCI-H23 lung and in the test on UO-31 renal was above 100 µM throughout.
